From PubChem BioAssay AID651703 (Broad Institute, 2012) come the findings set out here.

“And” between values parts separate entries of the source, which are not always exact repeats. Equal values may be shown once.

What is called AC50 is the concentration at which the activity in the assay is half-maximal.

This experiment has as its target Transforming acidic coiled-coil-containing protein 3 (Homo sapiens) (UniProt Q9Y6A5). In words: ARNT/TACC3 interaction disruptors, potency, confirmation, biochemical, AlphaScreen, cherry-picked samples (AID 651703).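 Further: TACC3 partner is the GST-tagged E629A mutant dimer; hits lower the signal meaning they disrupt ARNT binding to TACC3.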 Conditions: AlphaScreen His-ARNT PAS-B / GST-TACC3 binding, luminescence. On the technique in general: Bead proximity is the source of the signal in Alpha formats.
For `c1ccc(-c2nnc(-c3ccccn3)nc2N2CCC(c3ccccc3)C2)cc1` (centres undefined), the AC50 was 4.75 µM.

`C=CCn1c(CNc2ccccc2)nnc1SCC(=O)N/N=C/c1ccc(O)cc1O`: the AC50 was 25.1 µM.

As to `Oc1cccc2c(-c3nn[nH]n3)ccnc12`, the AC50 was 2.14 µM.

In the case of `O=C(N/N=C/c1cccc2nccnc12)c1ccccc1O`, the AC50 was 4.77 µM.

For the compound `CS(=O)(=O)c1cccc(-c2nnc(NC(=O)c3ccc(S(=O)(=O)N4CCCC4)cc3)o2)c1`, the AC50 was 22.5 µM.

With `O=C(NCCCNCCCNC(=O)c1ccc(/C=N/O)nc1)c1ccc(/C=N/O)nc1`, the half-maximal activity concentration (AC50) was 4.96 µM.

For the compound `C[C@@H]1CN([C@@H](C)CO)C(=O)Cc2cc(NC(=O)Nc3cccc4ccccc34)ccc2O[C@H]1CN(C)Cc1ccc(Oc2ccccc2)cc1`, the AC50 was 18.4 µM.

Regarding `Cc1[nH]n(-c2ccccc2)c(=O)c1/C=N/N(c1ccccc1)c1ccccc1`, the AC50 was 16.2 µM.

With `CCOc1ccc(C(=O)CCNC(Cc2cnc[nH]2)C(=O)O)cc1` (centres undefined), the concentration at half-maximal activity (AC50) was 41.2 µM.

As for `O=C(Nc1ccc(Cl)cc1)O/N=C(\c1ccccc1)c1ccccn1`, the AC50 is 17.6 µM.

On to `O=C(N[C@@H]1CC[C@H](CCn2cc(-c3ccccn3)nn2)O[C@@H]1CO)c1ccccc1`, for which the AC50 was 20.7 µM.

As for `CCOc1ccc(NC(=O)c2c(NC(=O)CNCCN3CCOCC3)sc3c2CCC3)cc1`, the concentration at half-maximal activity (AC50) is 14.6 µM.

On to `CCNC(=O)C(=O)N/N=C/c1cc([N+](=O)[O-])ccc1O`, for which the AC50 was 2.62 µM.

For the compound `Cc1ccn2c(Nc3ccccc3C)c(-c3ccccn3)nc2c1`, the AC50 is 3.69 µM.

`Cn1c(-c2ccc(Cl)cc2)cnc1N`: the AC50 was 20.5 µM.

Turning to `Cc1ccc(S(=O)(=O)CCC(=O)Nc2nc(-c3ccccn3)cs2)cc1`, the AC50 was 10.5 µM.

As for `O=C(N/N=C/c1cc(Br)ccc1OC(=O)c1ccc(Br)cc1)c1ccncc1`, the half-maximal activity concentration (AC50) is 4.24 µM.

As to `Cc1cc(C)c2nc(C)cc(N/N=C/c3ccc(O)cc3)c2c1`, the AC50 was 37.3 µM.

Regarding `CNc1nc(C(=O)O)nc(N2CCOCC2)n1`, the AC50 is 11.6 µM.

In the case of `COc1cccc(/C=N/NC(=O)CNC(=O)c2ccncc2)c1O`, the AC50 is 64.8 µM.

`c1ccc(-c2csc(Nc3nc(-c4ccccn4)nnc3-c3ccccc3)n2)cc1`: the AC50 was 0.897 µM.

As for `O=C(CSc1cccc2cccnc12)Nc1cc(C(=O)O)cc(C(=O)O)c1`, the AC50 was 17.9 µM.

For the compound `O=C(N[C@H]1CC[C@H](CCn2cc(-c3ccccn3)nn2)O[C@H]1CO)c1cccnc1`, the half-maximal activity concentration (AC50) was 24.8 µM.

For `Cc1cccc(NC(=O)CSc2ccc(-c3ccccn3)nn2)c1C`, the AC50 was 2.86 µM.

As for `COc1ccccc1CNC(=O)CSc1ccc(-c2ccccn2)nn1`, the AC50 was 9.48 µM.

For the compound `CC(NC1=CC(=O)c2cccnc2C1=O)C(O)c1ccccc1` (centres undefined), the AC50 was 15.5 µM.

On to `COc1cccc(/C=N/NC(=O)c2ccc3nc[nH]c3c2)c1O`, for which the AC50 was 23.3 µM.

In the case of `CCOc1cc2c(C#N)c(N3CCOCC3)nc(N)c2c(N)n1`, the AC50 is 30.4 µM.

On to `Nc1nc(-c2ccccn2)nc(N)c1Cc1ccccc1F`, for which the AC50 was 3.39 µM.

`Oc1ccc(CN2CCC3CCCCC3C2)c2cccnc12` (centres undefined): the half-maximal activity concentration (AC50) was 1.22 µM.

As to `COc1ccc(O)c(/C=N\NC(=O)CCn2nnc3ccccc32)c1`, the AC50 is 33.4 µM.

For `Cc1cccc(C(=O)Nc2nnc(-c3ccco3)o2)c1`, the AC50 is 5.86 µM.

On to `Cc1ccc(NC(=O)CSc2n[nH]c(-c3ccccn3)n2)cc1`, for which the AC50 was 2.26 µM.

Consider `O=C(N/N=C/c1sc2ccccc2c1O)c1cccc2ccccc12`, for which the concentration at half-maximal activity (AC50) is 23 µM.

For `Oc1ccc(CNC2Cc3ccccc3C2)c2cccnc12`, the AC50 was 0.63 µM.

With `O=C(Oc1c(CN2CCOCC2)cc(Cl)c2cccnc12)c1ccccc1`, the concentration at half-maximal activity (AC50) is 18.3 µM.

Take `Cc1c(C(=O)N(C)C)sc2nc(-c3ccccn3)[nH]c(=O)c12`: the AC50 was 2.78 µM.

Regarding `O=C(CSc1cccc2cccnc12)Nc1ccccc1F`, the AC50 is 19.5 µM.

With `O=C(N[C@H]1CC[C@@H](CCn2cc(-c3ccccn3)nn2)O[C@@H]1CO)c1ccccc1`, the AC50 was 15.5 µM.

Regarding `CCOc1ccc(C2=Nn3c(nnc3-c3ccccn3)SC2)cc1`, the AC50 is 20.4 µM.

As to `O=S(=O)(N[C@H]1CC[C@@H](CCn2cc(-c3ccccn3)nn2)O[C@H]1CO)c1cccc(F)c1`, the AC50 is 19.1 µM.

`O=C(N/N=C/C=C/c1ccco1)c1cnccn1`: the AC50 was 55.4 µM.

As to `O=[N+]([O-])c1cccc(/C=N/Nc2nc(NCc3ccccc3)nc(N3CCOCC3)n2)c1O`, the AC50 is 2.29 µM.

In the case of `N#CC1=C(N)Oc2c(ccc3cccnc23)C1c1ccccc1` (centres undefined), the AC50 was 17.7 µM.

With `N/C(=N\OS(=O)(=O)c1ccc(Cl)cc1)c1ccccn1`, the AC50 was 22.5 µM.

Consider `COc1ccc(C)cc1NC(=O)CSc1ccc(-c2ccccn2)nn1`, for which the AC50 was 3.11 µM.

For `CSCCC(=O)Nc1nc(-c2ccccn2)cs1`, the AC50 is 8.98 µM.

As to `C[C@@H](C(=O)Nc1nc(-c2ccccn2)cs1)N1C(=O)C2CCCCC2C1=O` (some centres undefined), the AC50 is 4.28 µM.

With `O=C(NCCCn1ccnc1)Nc1cccc(Cl)c1`, the concentration at half-maximal activity (AC50) was 9.64 µM.

For `Cc1ccc(C)c(S(=O)(=O)N2CCCOC2CNC(=O)C(=O)NCCCn2ccnc2)c1` (centres undefined), the AC50 is 4.16 µM.

Turning to `CN(C)C(=O)CSc1cccc2cccnc12`, the AC50 was 4.27 µM.

As for `O=C(N[C@@H]1CC[C@@H](CCn2cc(-c3ccccn3)nn2)O[C@H]1CO)c1cccnc1`, the AC50 was 11.8 µM.

As for `CCC1CCCCN1S(=O)(=O)c1ccc(NC(=O)CSc2ncccc2C(=O)O)cc1` (centres undefined), the AC50 is 15.4 µM.

As to `CC(=O)[C@H]1[C@@H]2C(=O)N(c3cccc(Cl)c3)C(=O)[C@@H]2[C@H]2c3ccccc3C=CN21`, the AC50 was 6.22 µM.

As to `O=C(NCCCn1ccnc1)C(=O)NCC1OCCN1S(=O)(=O)c1ccc(Cl)cc1` (centres undefined), the AC50 is 10.8 µM.

In the case of `CCC(C)Nc1nc(-c2ccccn2)nc2ccccc12` (centres undefined), the concentration at half-maximal activity (AC50) was 8.57 µM.

As for `CS(=O)(=O)c1cccc(C(=O)Nc2nnc(C3=COCCO3)o2)c1`, the half-maximal activity concentration (AC50) is 45.6 µM.

Turning to `Cc1[nH]n(-c2ccccc2)c(=O)c1/C=N\NC(=O)C1COc2ccccc2O1` (centres undefined), the AC50 is 17.4 µM.

Regarding `c1ccc(-c2cn(C[C@H]3CC[C@H](Cn4cc(-c5ccccn5)nn4)O3)nn2)nc1`, the half-maximal activity concentration (AC50) is < 0.5 µM.

Take `COc1ccc(-c2nc(C#N)c(N3CCCCC3)o2)cc1`: the AC50 is 32.2 µM.

With `c1ccc(-c2n[nH]c(-c3ccccn3)n2)nc1`, the AC50 is < 0.5 µM.

Consider `COc1cc(C2C(C#N)=C(N)Oc3n[nH]c(-c4ccccn4)c32)cc(OC)c1OC` (centres undefined), for which the AC50 is 19.7 µM.

For `Cc1cccc(S(=O)(=O)N[C@@H]2CC[C@@H](CCn3cc(-c4ccccn4)nn3)O[C@@H]2CO)c1`, the AC50 was 26.7 µM.

Turning to `COc1ccc(NC(=O)N[C@H]2CC[C@@H](CCn3cc(-c4ccccn4)nn3)O[C@@H]2CO)cc1`, the AC50 is 13.3 µM.

On to `CC(C)(C)C(=O)Nc1ccccc1C(=O)NCCCn1ccnc1`, for which the half-maximal activity concentration (AC50) is 17.4 µM.

On to `COc1cccc(C(=O)Oc2c(CN3CCOCC3)cc(Cl)c3cccnc23)c1`, for which the AC50 was 10.9 µM.

Take `Cc1ccccc1Nc1nnc(SCC(=O)NC(=O)NCc2ccco2)s1`: the AC50 is 71.2 µM.

For the compound `O=C(O)CCNc1cc(N2CCN(C(=O)c3ccco3)CC2)c2noc3c2c1C(=O)c1ccccc1-3`, the AC50 is 14.9 µM.

As to `Oc1cccc(/C=N/Nc2ccc(Cl)nn2)c1O`, the AC50 is 1.5 µM.

Turning to `CN(C)CCCNC(=O)c1ccc(-c2cc(O)c3ncccc3c2)cc1`, the AC50 is 2.78 µM.

As for `CC(C)(C)CCNc1nc(-c2ccccn2)nnc1-c1ccccc1`, the AC50 was 0.717 µM and < 0.5 µM.

Turning to `COc1cc(/C=N/NC(=O)c2cncc(Br)c2)cc([N+](=O)[O-])c1O`, the AC50 was 42 µM.

On to `CCCCC(=O)NC(c1cccc([N+](=O)[O-])c1)c1ccc2cccnc2c1O` (centres undefined), for which the concentration at half-maximal activity (AC50) was 4.22 µM.

Take `O=C(CN1C(=O)COc2ccccc21)Nc1ccc(F)cc1`: the AC50 is 3.96 µM.

In the case of `c1ccc(-c2n[nH]c(-c3ccccn3)n2)cc1`, the AC50 is 11.6 µM.

As for `N#Cc1ccc(OCC(=O)NCCCn2ccnc2)cc1`, the AC50 was 8.65 µM.

As for `Cc1nnc(NC(=O)c2ccc(S(=O)(=O)N3CCCCC3C)cc2)o1` (centres undefined), the AC50 is 52 µM.

With `C=CCn1c(Cc2csc(N)n2)nnc1SCC(=O)Nc1ccc(C(=O)OCC)cc1`, the concentration at half-maximal activity (AC50) was 14.1 µM.

For the compound `Cc1cccnc1Nc1nc(-c2ccccn2)cs1`, the AC50 is 0.756 µM.

Turning to `N#CC1=C(N)Oc2c(ccc3cccnc23)C1c1ccncc1` (centres undefined), the AC50 was 26.9 µM.

`O=Nc1ccc(O)c2ncccc12`: the AC50 was 13.6 µM.

In the case of `Clc1ccc(OCc2nc(-c3ccccn3)n[nH]2)cc1`, the AC50 is 5.91 µM.

As for `Nc1nnc2c(n1)CCCC2`, the half-maximal activity concentration (AC50) was 4.63 µM.

With `C=CCSc1nnc(-c2cccc3ccccc23)o1`, the AC50 is 5.8 µM.

Regarding `COc1cc(OC)c(C(=O)OCC(=O)Nc2nnc(-c3ccccc3)o2)cc1OC`, the AC50 was 19 µM.

For the compound `COc1ccccc1N1CCN(Cc2ccc(O)c3ncccc23)CC1`, the AC50 is 0.669 µM and 2.18 µM.

As for `O=S1(=O)N=C(N(CCO)/N=C/C=C/c2ccccc2)c2ccccc21`, the AC50 was 53.9 µM.

In the case of `CC1(c2ccccc2)NC(=O)N(CC(=O)Nc2nc(-c3ccccn3)cs2)C1=O` (centres undefined), the AC50 is 6.64 µM.

For the compound `CCSc1nnc(NC(=O)c2ccccn2)s1`, the AC50 is 3.61 µM.

`C[C@@H]1CN([C@H](C)CO)S(=O)(=O)c2ccc(C3=CCCC3)cc2O[C@H]1CN(C)Cc1ccccn1`: the AC50 was 70 µM.

As for `Cc1cc([N+](=O)[O-])cc(/C=N\NC(=O)C2COc3ccccc3O2)c1O` (centres undefined), the half-maximal activity concentration (AC50) is 36.3 µM.

As to `Cc1ccc(C)c(NC(=O)CSc2n[nH]c(-c3ccccn3)n2)c1`, the AC50 is 0.574 µM.

With `CCOc1ccccc1NC(=O)CN(c1ccc(OC)cc1)S(=O)(=O)c1c(C)[nH]c(=O)[nH]c1=O`, the concentration at half-maximal activity (AC50) was 10.5 µM.

Consider `c1ccc(-c2nc3ccccn3c2NC2CCCC2)nc1`, for which the AC50 is 13.9 µM.

As to `CC(Oc1cccc(Cl)c1)C(=O)Nc1nc(-c2ccccn2)cs1` (centres undefined), the AC50 was 18 µM.

For the compound `O=c1[nH]c(-c2ccccn2)nc2ccccc12`, the AC50 is 7.86 µM.

`COc1ccc(C2C(C#N)=C(N)Oc3c2ccc2cccnc32)cc1OC` (centres undefined): the AC50 was 58.6 µM.

With `O=C(N[C@@H]1CC[C@H](CCn2cc(-c3ccccn3)nn2)O[C@@H]1CO)c1cccnc1`, the AC50 is 13.5 µM.

For the compound `N#Cc1ccc(C(=O)Nc2nnc(-c3ccccn3)o2)cc1`, the AC50 is 22.4 µM.
